The test relates to LC3 protein fused to ZsGreen. As to the kind of experiment: zebrafish autophagy reporter (LC3-ZsGreen, skeletal muscle specific promoter), number of LC3 punctae. The test is classed as in vivo. The note with it: zebrafish larvae treated at 48 h post-fertilization, 0.25 to 10 mM, 16 hours of treatment. As for the experimental part: After 16 hours of treatment larvae were anesthetized with 0.016% tricaine and imaged with ImageXpress confocal system at 20× magnification (Molecular Devices). Z stack images were captured for each larva and maximal projection images were produced. Number of LC3 punctae have been calculated with MetaXpress software (Moleculare Devices) and normalized by fish area.

Each structure is given as a SMILES string.

`N=C(N)NCCC[C@H](N)C(=O)O` [Arginine]: the “effect on autophagy (number of LC3 punctae normalized by fish area)” value is listed as “reduce basal autophagy”.
In the case of `N[C@@H](CS)C(=O)O` [Cysteine] it was “strongly induce autophagy”.
As to `N[C@@H](CCC(=O)O)C(=O)O` [Glutamate], the “effect on autophagy (number of LC3 punctae normalized by fish area)” value was “strongly induce autophagy”.
In the case of `NC(=O)CC[C@H](N)C(=O)O` [Glutamine] it was “reduce basal autophagy”; in that of `NCC(=O)O` [Glycine], “strongly induce autophagy”; in that of `CC[C@H](C)[C@H](N)C(=O)O` [Isoleucine], “reduce basal autophagy”.
To `CC(C)C[C@H](N)C(=O)O` [Leucine] belongs “reduce basal autophagy”; to `CSCC[C@H](N)C(=O)O` [Methionine], “strongly induce autophagy”.
In the case of `CC(=O)N[C@@H](CS)C(=O)O` [N-Acetyl Cysteine] it was “strongly induce autophagy”; in that of `O=C(O)[C@@H]1CCCN1` [Proline], “strongly induce autophagy”.
Regarding `N[C@@H](CO)C(=O)O` [Serine], the “effect on autophagy (number of LC3 punctae normalized by fish area)” value is “strongly induce autophagy”.
In the case of `N[C@@H](Cc1ccc(O)cc1)C(=O)O` [Tyrosine] it was “strongly induce autophagy”; in that of `CC(C)[C@H](N)C(=O)O` [Valine], “strongly induce autophagy”.
